Data taken from US5945454A, “2-(4-substituted)-benzylamino-2-methyl-propanamide derivatives” (Pharmacia & Upjohn, S.P.A., priority 1995, dated 1999).

test system: maximal electroshock seizures (MES); assay: antagonism of maximal electroshock seizures (MES) after oral administration; type: in vivo; conditions: limits in parentheses, read-out: MES-ED50 (effective dose in 50% of treated animals)
Protocol: The activity on the CNS of the compounds of the invention was evaluated on the basis of pharmacological methods, such as, for example, the antagonism of convulsions and lethality induced by intravenous injection of bicuculline in mice (Antiepileptic Drugs, D. M. Woodbury et al. eds., 2nd edition, Raven Press, New York, 1982), or the antagonism of maximal electroshock seizures (MES) (Woodbury, L. A. and Davenport, V. D., Arch. Int. Pharmacodyn. Ther. 92; 97-104, 1952).
The following table summarizes the activity data obtained by testing in the MES test a representative group of compounds of the invention in comparison with the respective 2-desmethyl related compounds known from WO 90/14334.
ED50 means effective dose in 50% of treated animals after per os (po) administration.

`C[C@H](NCc1ccc(OCc2cccc(Cl)c2)cc1)C(N)=O` [FCE 26193A, (S)-2-(4-(3-chlorobenzyloxy)benzylamino) propanamide, methanesulfonate] and `C[C@H](NCc1ccc(OCc2cccc(F)c2)cc1)C(N)=O` [FCE 26743A, (S)-2-(4-(3-fluorobenzyloxy)benzylamino) propanamide, methanesulfonate] are within 1.5-fold of each other in ED50: 9.41 mg/kg for the first, 8.2 mg/kg for the second.

Going from `C[C@H](NCc1ccc(SCc2ccccc2)cc1)C(N)=O` [FCE 26727A, (S)-2-(4-benzylsulfanyl)benzylamino) propanamide, methanesulfonate] to `CC(C)(NCc1ccc(SCc2ccccc2)cc1)C(N)=O` [FCE 29482A, 2-[(4-benzylsulfanyl)benzylamino]-2-methyl-propanamide, methanesulfonate], the ED50 falls from 12.7 mg/kg to 3.12 mg/kg (4.1-fold).

First: C[C@H](NCc1ccc(OCc2ccccc2F)cc1)C(N)=O [FCE 26742A, (S)-2-(4-(2-fluorobenzyloxy)benzylamino) propanamide, methanesulfonate]
Second: C[C@H](NCc1ccc(OCc2ccc(F)cc2)cc1)C(N)=O [FCE 26998A, (S)-2-(4-(4-fluorobenzyloxy)benzylamino) propanamide, methanesulfonate]
The ED50 of the first is 2.3-fold lower: 7.13 mg/kg for the first, 16.3 mg/kg for the second.

First: CNC(=O)[C@H](C)NCc1ccc(OCc2cccc(F)c2)cc1.CS(=O)(=O)O [FCE 28657A, (S)-2-(4-(3-fluorobenzyloxy)benzylamino)-N-methylpropanamide, methanesulfonate]
Second: CNC(=O)C(C)(C)NCc1ccc(OCc2cccc(F)c2)cc1.CS(=O)(=O)O [FCE 29647A, 2-[4-(3-fluorobenzyloxy)benzylamino]-2-methyl-N-methyl-propanamide, methanesulfonate]
The ED50 of the first is 2.2-fold higher: 9.35 mg/kg for the first, 4.34 mg/kg for the second.

`CC(C)(NCc1ccc(OCc2cccc(F)c2)cc1)C(N)=O` [FCE 29088A, 2-[4-(3-fluorobenzyloxy)benzylamino]-2-methyl-propanamide, methanesulfonate] and `CC(C)(NCc1ccc(OCc2cccc(Cl)c2)cc1)C(N)=O` [FCE 29644A, 2-[4-(3-chlorobenzyloxy)benzylamino]-2-methyl-propanamide, methanesulfonate] are within 1.5-fold of each other in ED50: 4.4 mg/kg for the first, 3.88 mg/kg for the second.

First: CC(C)(NCc1ccc(OCc2ccccc2F)cc1)C(N)=O.CS(=O)(=O)O [FCE 29484A, 2-[4-(2-fluorobenzyloxy)benzylamino]-2-methyl-propanamide, methanesulfonate]
Second: CC(C)(NCc1ccc(OCc2ccc(F)cc2)cc1)C(N)=O.CS(=O)(=O)O [FCE 29645A, 2-[4-(4-fluorobenzyloxy)benzylamino]-2-methyl-propanamide, methanesulfonate]
The ED50 of the first is 2.1-fold lower: 3.1 mg/kg for the first, 6.58 mg/kg for the second.
